# Reference: article PMC9101642 (Molecules, 2022)
# Where two headings read alike, the source gives them in different places. Marks after values point to notes of the source that are not given here.
# How the values were obtained:
# [1] = tested on: progesterone receptor (PR); experiment: ERα functional antagonism cell assay (PR as biomarker) in MCF-7; type: cell-based; details: Homo sapiens, MCF7; progesterone receptor as biomarker for ERα antagonism in MCF-7
# [2] = target: ERβ (Homo sapiens, UniProt Q92731); experiment: Fluorescence polarization competition assay: antagonistic potency and relative binding affinity; details: for logRBA ERβ: log of % relative binding affinity, estradiol = 100%
# [3] = tested on: Ishikawa endometrial adenocarcinoma cells; experiment: Antiproliferative assay; type: cell-based; details: Homo sapiens, growth inhibition
# Source text: As SERMs profile is often associated with the stimulation of endometrial cell proliferation and an increase in the incidence of endometrial cancer (EC), the herein compounds were therefore evaluated against Ishikawa endometrial adenocarcinoma cells (Table 8, Supplementary Material Figures […]). […] However, future experimental elaboration, currently beyond the authors' experimental facilities, is required to confirm compounds' promising profiles in terms of no EC induction.
# [4] = target: T1, ERα (Homo sapiens, UniProt P03372); experiment: Fluorescence polarization competition assay: antagonistic potency and relative binding affinity; details: for logRBA ERα: log of % relative binding affinity, estradiol = 100%
# T1 sequence (P03372 1-595): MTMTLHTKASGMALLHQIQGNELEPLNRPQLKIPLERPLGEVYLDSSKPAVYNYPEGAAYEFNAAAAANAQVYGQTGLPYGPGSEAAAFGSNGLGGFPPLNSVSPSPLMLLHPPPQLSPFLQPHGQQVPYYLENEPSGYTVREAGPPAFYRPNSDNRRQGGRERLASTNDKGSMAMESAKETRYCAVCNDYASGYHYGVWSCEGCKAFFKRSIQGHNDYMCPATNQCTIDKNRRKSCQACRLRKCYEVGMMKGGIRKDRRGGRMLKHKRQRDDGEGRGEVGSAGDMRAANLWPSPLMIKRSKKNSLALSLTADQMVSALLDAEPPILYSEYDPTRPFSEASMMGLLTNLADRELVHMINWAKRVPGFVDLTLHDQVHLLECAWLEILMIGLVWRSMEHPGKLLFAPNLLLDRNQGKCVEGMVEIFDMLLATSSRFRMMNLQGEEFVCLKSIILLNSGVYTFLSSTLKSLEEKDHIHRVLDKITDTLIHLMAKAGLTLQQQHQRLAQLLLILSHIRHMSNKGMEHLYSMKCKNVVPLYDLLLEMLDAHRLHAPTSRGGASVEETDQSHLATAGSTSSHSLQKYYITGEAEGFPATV
# [5] = MTT antiproliferative assay (neutral control); details: human
# [6] = tested on: MDA-MB-231 cell lines; experiment: MTT antiproliferative assay; type: cell-based, human; details: Homo sapiens, MDA-MB-231
# [7] = tested on: MCF-7 cell lines; experiment: MTT antiproliferative assay; type: cell-based, human; details: for IC50: Homo sapiens, MCF7; for SI: selectivity index [IC50(MDA-MB-231)]/[IC50(MCF-7)]
# [8] = tested on: MCF-7 cells; experiment: Cell cycle distribution by flow cytometry; type: cell-based, human; details: 24 h
# [9] = target: T1, ERα; experiment: ERα down-regulation immunofluorescence assay in MCF-7; type: cell-based
# [10] = tested on: MNU-induced breast cancer; experiment: In vivo anticancer screening, MNU-induced mammary tumorigenesis; design: species or system female Wistar rats; details: dose 50 mg/kg (compounds per os after MNU; MNU alone i.p.)
# [11] = Liver oxidative stress markers after treatment of MNU-induced rats; type: in vivo, Wistar rats; details: liver, dose 50 mg/kg
# Method: (§1) Rats were housed at 3 per cage and
# (§2) The breast cancer was induced after the MNU (Sigma Aldrich CAS No. 684-93-5) administration. An aqueous solution at a concentration of 10 mg/ml was made by wetting the NMU powder with 3% acetic acid and then dissolving it in 0.9% NaCl solution; a fresh solution was prepared for each injection. Rats were given intraperitoneal (i.p.) 50 mg/kg of MNU on the 50th day of age. Animals were divided into different groups with six animals in each group. Group I (intact control) received 0.9% NaCl solution.
# (§3) Groups II-IV and V-VII were introduced with MNU. Two weeks after MNU treatment, animals were treated orally with synthesized compounds and control substances (5 and 50 mg/kg, for groups II-IV and V-VII, respectively) by gavage once per day for six weeks. Animals in the intact control group and untreated MNU group were given vehicle (Tween 80) according to the experimental protocol. […]
# Upon finishing the treatment with synthesized compounds, animals were sacrificed, and plasma, serum, and liver samples were collected. […]
# Determination of Antioxidant Markers in Liver Homogenate
# Rat liver samples were homogenized in phosphate buffer (5 mM, pH = 7.4) to give a 10% (w/v) liver homogenate and then centrifuged at 4000 rpm for 15 min at 4°C. The supernatant of liver homogenate was used for the estimation of reduced glutathione (GSH) and catalase (CAT) levels by the colorimetric method. The contents of malondialdehyde (MDA) in the supernatant of the liver homogenates were determined using 1,1,3,3-tetraethoxypropane as standard. Total protein concentrations were determined according to the method of Lowry using bovine serum albumin as […]
# [12] = tested on: MNU-induced breast cancer tissue; experiment: Histopathology of breast sections; type: in vivo, Wistar rats; details: 50 mg/kg of bwt
# Source text: The impact of selected leads on BC tissue was registered after their administration to experimental animals with MNU-induced BC (Figure 9 and Supplementary Material Figures S211–S218). […] In contrast to this, the administered leads were harmless in both concentrations, neutralizing the MNU-induced changes, judging by the lobuloalveolar units and cuboidal epithelial cells found (Figure 9C,D, and Supplementary Material Figures S214–S218). […]
# Histopathological Studies
# histopathological changes. […]
# [13] = Serum biochemical markers after treatment of MNU-induced rats; type: in vivo, Wistar rats; design: TBC: unit not given here; details: dose 50 mg/kg
# Method: as §1, §2, §3
# Upon finishing the treatment with synthesized compounds, animals were sacrificed, and plasma, serum, and liver samples were collected.
# Measurement of Serum Biochemical Markers
# The activities of AST and ALT on 340 nm, and ALP on 405 nm, were determined by UV-Vis kinetic methods according to recommendations of the Expert Panel of the IFCC (International Federation of Clinical Chemistry). The colorimetric methods were used for the determination of total bilirubin (Jendrassik-Grof 550 nm method). All kinetic and colorimetric measurements were recorded using a Perkin-Elmer Lambda 25 UV/Vis spectrophotometer. […]
# [14] = growth inhibition, 48 h, read-out: MDA-MB-231 (IC50 nM)
# [15] = growth inhibition, 48 h, read-out: MCF-7 (IC50 nM)
# [16] = 1 nM as lower concentration (3DPQ-5, 3DPQ-6, 3DPQ-8)
# [17] = MFD 1000 mg/kg (MNU: MTD 100 mg/kg bwt), 5 days
# ERβ, sequence (Q92731 whole entry): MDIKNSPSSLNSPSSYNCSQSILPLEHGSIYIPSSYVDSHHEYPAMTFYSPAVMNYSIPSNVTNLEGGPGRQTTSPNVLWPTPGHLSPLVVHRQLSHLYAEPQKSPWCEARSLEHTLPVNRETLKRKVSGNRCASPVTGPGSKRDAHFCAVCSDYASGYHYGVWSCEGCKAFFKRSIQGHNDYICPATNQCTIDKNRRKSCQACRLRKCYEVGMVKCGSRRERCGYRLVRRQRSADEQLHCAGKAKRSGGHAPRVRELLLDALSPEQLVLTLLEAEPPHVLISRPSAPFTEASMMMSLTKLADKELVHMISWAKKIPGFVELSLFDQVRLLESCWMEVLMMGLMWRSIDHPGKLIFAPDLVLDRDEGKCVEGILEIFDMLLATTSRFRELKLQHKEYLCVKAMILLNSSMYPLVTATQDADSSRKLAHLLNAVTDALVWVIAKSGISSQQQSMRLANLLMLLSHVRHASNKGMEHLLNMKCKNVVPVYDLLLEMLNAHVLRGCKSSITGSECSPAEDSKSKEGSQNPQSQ
compound,measurement,setting,value
"CC(=O)c1cc(C(=O)O[C@@H]2/C=C/C(=O)O[C@@H](O)CCC/C=C/[C@@H]3C[C@H](O)C[C@H]32)ccc1OCCN1Cc2cccnc2C1 [Compound 3DPQ-6, (1R,2E,6R,10E,11aS,13S,14aR)-6,13-dihydroxy-4-oxo-4,6,7,8,9,11a,12,13,14,14a-decahydro-1H-cyclopenta[f][1]oxacyclotridecin-1-yl 4-(2-(5H-pyrrolo[3,4-b]pyridin-6(7H)-yl)ethoxy)-3-acetylbenzoate]",IC50,[1],> 100 nM
same,IC50,[2],86.56 ± 0.33 nM
same,Ki,[2],48.6 nM
same,logRBA ERβ,[2],"0.01 ^†,‡,§"
same,IC50,[3],1.46 ± 0.43 nM
same,IC50,[4],0.84 ± 0.11 nM
same,Ki,[4],0.19 nM
same,logRBA ERα,[4],2.03 ^‡
same,"ERα potency, fold more potent than 4-OHT",[4]; ratio of IC50 values,1.33 fold
same,IC50 at 48 h,[5],> 100 nM
same,IC50,[6]; [14],52.31 ± 0.46 nM
same,IC50,[7]; [15],1.14 ± 0.49 nM
same,SI,[7],"45.89 ^‡,§"
same,Cell Cycle (%) G0/G1,[8]; [16],"70.52 ± 1.53 *^,†,‡,§ %"
same,Cell Cycle (%) G2/M,[8]; [16],"16.21 ± 3.25 *^,†,‡,§ %"
same,Cell Cycle (%) S,[8]; [16],"13.27 ± 2.64 *^,†,‡,§ %"
same,Cell Cycle (%) G0/G1,"[8]; 10 nM (3DPQ-5, 3DPQ-6, 3DPQ-8)","71.98 ± 2.44 *^,†,‡,§ %"
same,Cell Cycle (%) G2/M,"[8]; 10 nM (3DPQ-5, 3DPQ-6, 3DPQ-8)","14.05 ± 2.43 *^,†,‡,§ %"
same,Cell Cycle (%) S,"[8]; 10 nM (3DPQ-5, 3DPQ-6, 3DPQ-8)","13.98 ± 1.33 *^,†,‡,§ %"
same,IC50,[9],> 100 nM
"CC(=O)c1cc(C(=O)O[C@@H]2/C=C/C(=O)O[C@@H](O)CCC/C=C/[C@@H]3C[C@H](O)C[C@H]32)ccc1OCCN1CCCC1 [Compound 3DPQ-11, (1R,2E,6R,10E,11aS,13S,14aR)-6,13-dihydroxy-4-oxo-4,6,7,8,9,11a,12,13,14,14a-decahydro-1H-cyclopenta[f][1]oxacyclotridecin-1-yl 3-acetyl-4-(2-(pyrrolidin-1-yl)ethoxy)benzoate]",IC50,[1],> 100 nM
same,IC50,[2],76.52 ± 0.48 nM
same,Ki,[2],43 nM
same,logRBA ERβ,[2],"0.07 ^†,‡,§"
same,IC50,[3],1.37 ± 0.47 nM
same,IC50,[4],0.7 ± 0.33 nM
same,Ki,[4],0.16 nM
same,logRBA ERα,[4],2.10 ^‡
same,"ERα potency, fold higher than Ral",[4]; ratio of IC50 values,1.06 fold
same,IC50 at 48 h,[5],> 100 nM
same,IC50,[6]; [14],67.12 ± 0.54 nM
same,IC50,[7]; [15],0.81 ± 0.22 nM
same,"MCF-7 antiproliferative potency, fold higher than Ral",[7]; ratio of IC50 values,1.10 fold
same,SI,[7],"82.86 ^‡,§"
same,Cell Cycle (%) G0/G1,[8]; 0.1 nM,"72.53 ± 0.47 *^,†,‡,§ %"
same,Cell Cycle (%) G2/M,[8]; 0.1 nM,"14.16 ± 2.13 *^,†,‡,§ %"
same,Cell Cycle (%) S,[8]; 0.1 nM,"13.31 ± 1.66 *^,†,‡,§ %"
same,Cell Cycle (%) G0/G1,[8]; 1 nM,"74.99 ± 2.54 *^,†,‡,§ %"
same,Cell Cycle (%) G2/M,[8]; 1 nM,"11.00 ± 3.43 *^,†,‡,§ %"
same,Cell Cycle (%) S,[8]; 1 nM,"14.02 ± 1.43 *^,†,‡,§ %"
same,IC50,[9],> 100 nM
"CC(=O)c1cc(C(=O)OC2C=CC(=O)OC(O)CCCC=CC3CC(O)CC32)ccc1OCCN1C(=O)CCC1=O (stereo not shown) [Compound 3DPQ-5, -decahydro-1H-cyclopenta[f][1]oxacyclotridecin-1-yl 3-acetyl-4-(2-(2,5-dioxopyrrolidin-1-yl)ethoxy)benzoate]",IC50,[1],> 100 nM
same,Ki,"[2]; calculated antagonistic (inhibitory) constant, read-out: Ka ERβ",41.8 nM
same,IC50,"[2]; concentration that antagonizes 50% of ERβ signaling activity, read-out: ERβ (IC50 nM)",74.41 ± 0.46 nM
same,logRBA ERβ,[2],"0.08 ^†,‡,§"
same,IC50,[3],1.42 ± 0.32 nM
same,Ki,"[4]; calculated antagonistic (inhibitory) constant, read-out: Ka ERα",0.18 nM
same,IC50,"[4]; concentration that antagonizes 50% of ERα signaling activity, read-out: ERα (IC50 nM)",0.81 ± 0.43 nM
same,logRBA ERα,[4],2.04 ^‡
same,"ERα potency, fold more potent than 4-OHT",[4]; ratio of IC50 values,1.38 fold
same,IC50 at 48 h,[5],> 100 nM
same,IC50,[6]; [14],52.6 ± 0.69 nM
same,IC50,[7]; [15],1.02 ± 0.64 nM
same,SI,[7],"51.61 ^‡,§"
same,Cell Cycle (%) G0/G1,[8]; [16],"71.78 ± 0.67 *^,†,‡,§ %"
same,Cell Cycle (%) G2/M,[8]; [16],"19.01 ± 3.55 *^,†,‡,§ %"
same,Cell Cycle (%) S,[8]; [16],"9.21 ± 1.95 *^,†,‡,§ %"
same,Cell Cycle (%) G0/G1,"[8]; 10 nM (3DPQ-5, 3DPQ-6, 3DPQ-8)","74.24 ± 2.15 *^,†,‡,§ %"
same,Cell Cycle (%) G2/M,"[8]; 10 nM (3DPQ-5, 3DPQ-6, 3DPQ-8)","15.85 ± 4.43 *^,†,‡,§ %"
same,Cell Cycle (%) S,"[8]; 10 nM (3DPQ-5, 3DPQ-6, 3DPQ-8)","9.92 ± 0.76 *^,†,‡,§ %"
same,IC50,"[9]; ERα downregulation measured in MCF-7, read-out: MCF-7 DR (IC50 nM)",> 100 nM
"C[C@H]1CCC/C=C/[C@@H]2C[C@H](O)C[C@H]2[C@H](O)/C=C/C(=O)O1 [BFA, Brefeldin A, reference compound]",IC50 at 48 h,[5],> 100000 nM
same,IC50,"[6]; virtually screened NCI hits, Table S17, read-out: MDA-MB-231 (IC50)",> 100000 nM
same,IC50,"[7]; virtually screened NCI hits, Table S17, read-out: MCF-7 (IC50)",9010 nM
"CN(N=O)C(N)=O [MNU, Methyl nitrosourea, reference compound]",Tumor Burden (week),[10],"4.55 ± 0.15 *^,‡,§,‖,┴ week"
same,Tumor Latency (week),[10],"5 *^,†,‡,§,‖,┴ week"
same,Tumor Volume (mm^3),[10],4.48 ± 0.54 mm^3
same,colon section histopathology,[17],induced colon
same,heart section histopathology,[17],interstitial hydrops
same,kidney section histopathology,[17],large size neoplastic lymphocytes infiltrated into the interstitial
same,liver section histopathology,[17],numerous numbers of medium to large size neoplastic lymphocytes
same,lung section histopathology,[17],alveolar bronchiolar
same,spleen section histopathology,[17],faded red pulp
same,"WL after MFD (day 1, mg)","average body weight at day 1, dosing at MFD",305.44 ± 0.62 mg
same,MFD (5 days),"maximum feasible (or tolerated) dose, 5 days per os, 5-1000 mg/kg bwt",100 mg/kg
same,CAT,[11]; catalase activity,3.08±0.68
same,TBARS,[11],3.31 ± 0.72 nmol/mg
same,SOD (U/mg),[11]; superoxide dismutase activity,3.32±0.14 U/mg
same,TP,[11]; total protein content,51.32 ± 0.43 g/L
same,breast section histopathology,[12],mammary gland carcinoma alongside with massive proliferation of neoplastic epithelial cells (EC)
same,ALP (A/L),[13]; serum,232.54±0.32 A/L
same,ALT (A/L),[13]; serum,157.31 A/L
same,AST (U/L),[13]; serum,135.43 U/L
same,γ-GT (U/L),[13]; serum,19.43±0.42 U/L
same,TBC,[13]; total bilirubin content,32.34
